Laboratory results from ChEMBL document CHEMBL4052632 (Eur J Med Chem, 2017).

Tests used:
A2780 [1] = assay: Antitumor activity against human A2780 cells xenografted in BALB/c nude mouse assessed as tumor growth inhibition at 50 mg/kg, ip administered once every 2 days for 14 consecutive days relative to control; assay type: functional; conditions: read-out: TGI
A2780 [2] = assay: Antitumor activity against human A2780 cells xenografted in BALB/c nude mouse assessed as tumor growth inhibition at 30 mg/kg, ip administered once every 2 days for 14 consecutive days relative to control; assay type: functional; conditions: read-out: TGI
A2780 [3] = assay: Induction of apoptosis in human A2780 cells assessed as total apoptotic cells at 5 to 20 uM after 24 hrs by annexin V/propidium iodide staining based flow cytometry (reference value: 17.3%); assay type: functional
A2780 [4] = assay: Antiproliferative activity against human A2780 cells measured after 48 hrs by MTT assay; assay type: functional, cell-based; conditions: A2780, 48 h
[5] = molecular target: 5'-AMP-activated protein kinase catalytic subunit alpha-1 (Homo sapiens) (UniProt Q13131); assay: Inhibition of full length recombinant human AMPKalpha1 using AMARAASAAALARRR as substrate at 100 uM after 40 mins in presence of ATP relative to control
[6] = molecular target: Serine/threonine-protein kinase Chk1 (Homo sapiens) (UniProt O14757); assay: Inhibition of recombinant human CHK1 using CREBtide as substrate at 100 uM after 30 mins in presence of ATP relative to control
Homo sapiens [7] = species: Homo sapiens; assay: Inhibition of recombinant human CK2 using Ulight-IkappaB-alpha as substrate at 100 uM after 60 mins in presence of ATP relative to control
[8] = molecular target: Protein kinase C alpha type (Homo sapiens) (UniProt P17252); assay: Inhibition of recombinant human PKCalpha using biotinyl-beta Abeta Abeta AKIQASFRGHMARKK as substrate at 100 uM after 10 mins in presence of ATP relative to control
[9] = molecular target: RAC-alpha serine/threonine-protein kinase (Homo sapiens) (UniProt P31749); assay: Inhibition of recombinant human PKBalpha using CREBtide (CKRREILSRRPSYRK) as substrate at 100 uM after 60 mins in presence of ATP relative to control
Sequence of RAC-alpha serine/threonine-protein kinase (Homo sapiens) (P31749 whole entry): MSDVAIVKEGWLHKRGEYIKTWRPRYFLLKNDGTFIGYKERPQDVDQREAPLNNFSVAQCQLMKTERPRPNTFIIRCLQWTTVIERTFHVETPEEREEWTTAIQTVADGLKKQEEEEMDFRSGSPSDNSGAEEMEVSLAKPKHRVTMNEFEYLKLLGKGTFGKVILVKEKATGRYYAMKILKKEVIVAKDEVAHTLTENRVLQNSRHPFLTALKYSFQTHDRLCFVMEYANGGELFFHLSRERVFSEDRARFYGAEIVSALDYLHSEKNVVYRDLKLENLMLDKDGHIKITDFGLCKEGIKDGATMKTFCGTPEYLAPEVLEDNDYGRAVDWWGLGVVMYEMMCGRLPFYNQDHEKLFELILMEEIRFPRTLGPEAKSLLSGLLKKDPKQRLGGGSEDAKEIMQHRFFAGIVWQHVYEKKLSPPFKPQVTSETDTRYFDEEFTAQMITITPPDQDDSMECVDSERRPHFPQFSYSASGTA

[10] = molecular target: Dual specificity mitogen-activated protein kinase kinase 1 (Homo sapiens) (UniProt Q02750); assay: Inhibition of recombinant human MEK1 using inactivated ERK2 as substrate at 100 uM after 60 mins in presence of ATP relative to control
Homo sapiens [11] = species: Homo sapiens; assay: Inhibition of human PKA at 100 uM in presence of ATP relative to control
[12] = molecular target: Mitogen-activated protein kinase 1 (Homo sapiens) (UniProt P28482); assay: Inhibition of human MAPK2 at 100 uM in presence of ATP relative to control
[13] = molecular target: 3-phosphoinositide-dependent protein kinase 1 (Homo sapiens) (UniProt O15530); assay: Inhibition of recombinant human PDK1 using Ulight-FLGFTYVAP as substrate at 100 uM after 90 mins in presence of ATP relative to control
[14] = molecular target: Mitogen-activated protein kinase 12 (Homo sapiens) (UniProt P53778); assay: Inhibition of full length recombinant human SAPK3 at 100 uM in presence of ATP relative to control
[15] = molecular target: Mitogen-activated protein kinase 8 (Homo sapiens) (UniProt P45983); assay: Inhibition of human JNK1alpa1 using at 100 uM after 90 mins in presence of ATP relative to control
[16] = molecular target: Platelet-derived growth factor receptor alpha (Homo sapiens) (UniProt P16234); assay: Inhibition of PDGFRalpha (unknown origin) using poly (Glu, Tyr) 4:1 as substrate at 100 uM after 1 hr by ELISA relative to control
[17] = molecular target: Platelet-derived growth factor receptor beta (Homo sapiens) (UniProt P09619); assay: Inhibition of PDGFRbeta (unknown origin) using poly (Glu, Tyr) 4:1 as substrate at 100 uM after 1 hr by ELISA relative to control
[18] = molecular target: Vascular endothelial growth factor receptor 1 (Homo sapiens) (UniProt P17948); assay: Inhibition of VEGFR-1 (unknown origin) using poly (Glu, Tyr) 4:1 as substrate at 100 uM after 1 hr by ELISA relative to control
Sequence of Vascular endothelial growth factor receptor 1 (Homo sapiens) (P17948 whole entry): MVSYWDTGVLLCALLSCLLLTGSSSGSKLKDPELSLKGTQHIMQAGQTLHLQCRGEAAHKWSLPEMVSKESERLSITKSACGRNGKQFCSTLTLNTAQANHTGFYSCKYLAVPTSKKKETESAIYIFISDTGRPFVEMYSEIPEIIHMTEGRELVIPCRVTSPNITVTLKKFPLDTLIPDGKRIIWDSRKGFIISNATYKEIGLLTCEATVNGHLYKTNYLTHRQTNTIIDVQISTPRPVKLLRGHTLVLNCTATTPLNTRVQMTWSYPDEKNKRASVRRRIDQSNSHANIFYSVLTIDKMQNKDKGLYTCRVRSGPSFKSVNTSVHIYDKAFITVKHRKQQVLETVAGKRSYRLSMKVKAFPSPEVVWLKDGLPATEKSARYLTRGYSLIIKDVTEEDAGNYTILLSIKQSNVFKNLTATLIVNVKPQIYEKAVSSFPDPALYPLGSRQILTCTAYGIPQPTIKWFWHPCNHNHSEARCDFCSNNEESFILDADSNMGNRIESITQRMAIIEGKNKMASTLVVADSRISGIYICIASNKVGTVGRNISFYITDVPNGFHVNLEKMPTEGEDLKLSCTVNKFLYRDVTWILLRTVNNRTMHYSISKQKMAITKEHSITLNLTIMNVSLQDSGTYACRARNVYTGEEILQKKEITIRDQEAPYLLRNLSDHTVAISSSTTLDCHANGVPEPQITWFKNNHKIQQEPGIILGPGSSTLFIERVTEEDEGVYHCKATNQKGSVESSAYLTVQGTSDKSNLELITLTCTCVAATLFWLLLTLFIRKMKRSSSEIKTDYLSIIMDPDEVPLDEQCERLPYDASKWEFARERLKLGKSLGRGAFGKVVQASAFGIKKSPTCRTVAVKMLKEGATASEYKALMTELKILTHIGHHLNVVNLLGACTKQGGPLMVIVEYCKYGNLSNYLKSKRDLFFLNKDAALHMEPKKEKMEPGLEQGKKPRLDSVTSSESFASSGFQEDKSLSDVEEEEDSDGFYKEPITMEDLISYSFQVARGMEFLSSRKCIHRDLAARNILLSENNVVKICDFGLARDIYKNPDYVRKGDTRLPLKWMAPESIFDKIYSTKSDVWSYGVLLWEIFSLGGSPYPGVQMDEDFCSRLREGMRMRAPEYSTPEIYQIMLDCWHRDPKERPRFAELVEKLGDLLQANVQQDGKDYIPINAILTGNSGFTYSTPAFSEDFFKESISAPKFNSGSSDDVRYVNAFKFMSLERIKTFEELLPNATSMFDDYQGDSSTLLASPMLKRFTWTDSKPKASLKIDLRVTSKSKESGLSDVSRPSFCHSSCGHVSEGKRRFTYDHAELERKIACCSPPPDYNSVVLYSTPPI

[19] = molecular target: Mast/stem cell growth factor receptor Kit (Homo sapiens) (UniProt P10721); assay: Inhibition of c-kit (unknown origin) using poly (Glu, Tyr) 4:1 as substrate at 100 uM after 1 hr by ELISA relative to control
[20] = molecular target: Epidermal growth factor receptor (Homo sapiens) (UniProt P00533); assay: Inhibition of EGFR (unknown origin) using poly (Glu, Tyr) 4:1 as substrate at 100 uM after 1 hr by ELISA relative to control
Sequence of Epidermal growth factor receptor (Homo sapiens) (P00533 whole entry): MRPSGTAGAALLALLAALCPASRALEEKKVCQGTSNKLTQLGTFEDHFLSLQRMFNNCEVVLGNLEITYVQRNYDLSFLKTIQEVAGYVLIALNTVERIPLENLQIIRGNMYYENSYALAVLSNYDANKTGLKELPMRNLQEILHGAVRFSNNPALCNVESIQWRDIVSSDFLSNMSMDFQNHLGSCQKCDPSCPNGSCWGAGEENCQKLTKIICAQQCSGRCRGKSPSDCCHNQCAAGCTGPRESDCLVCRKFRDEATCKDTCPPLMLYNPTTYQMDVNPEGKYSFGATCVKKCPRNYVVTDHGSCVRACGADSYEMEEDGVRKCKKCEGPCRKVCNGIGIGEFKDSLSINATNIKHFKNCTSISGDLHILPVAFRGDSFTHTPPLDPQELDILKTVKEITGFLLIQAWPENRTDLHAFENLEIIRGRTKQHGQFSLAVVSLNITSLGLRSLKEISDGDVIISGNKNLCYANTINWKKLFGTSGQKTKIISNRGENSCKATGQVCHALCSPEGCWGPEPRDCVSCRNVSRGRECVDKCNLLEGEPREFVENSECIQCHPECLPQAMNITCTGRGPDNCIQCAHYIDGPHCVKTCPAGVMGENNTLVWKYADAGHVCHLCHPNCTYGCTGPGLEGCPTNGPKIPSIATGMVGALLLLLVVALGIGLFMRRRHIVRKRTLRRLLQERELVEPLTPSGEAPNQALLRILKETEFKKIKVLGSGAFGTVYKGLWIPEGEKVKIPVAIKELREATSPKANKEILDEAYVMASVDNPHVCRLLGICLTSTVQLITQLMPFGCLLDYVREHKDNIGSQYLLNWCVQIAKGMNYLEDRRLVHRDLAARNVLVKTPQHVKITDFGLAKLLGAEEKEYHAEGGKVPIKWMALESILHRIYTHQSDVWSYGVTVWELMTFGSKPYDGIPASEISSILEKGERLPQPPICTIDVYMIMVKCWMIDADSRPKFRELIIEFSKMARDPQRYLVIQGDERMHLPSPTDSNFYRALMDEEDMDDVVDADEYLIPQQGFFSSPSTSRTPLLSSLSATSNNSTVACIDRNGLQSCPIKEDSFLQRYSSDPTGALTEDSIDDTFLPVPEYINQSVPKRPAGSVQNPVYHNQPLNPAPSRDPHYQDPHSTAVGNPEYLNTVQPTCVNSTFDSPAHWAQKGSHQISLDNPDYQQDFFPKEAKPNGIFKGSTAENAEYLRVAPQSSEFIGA

[21] = molecular target: Ephrin type-A receptor 2 (Homo sapiens) (UniProt P29317); assay: Inhibition of EPH-A2 (unknown origin) using poly (Glu, Tyr) 4:1 as substrate at 100 uM after 1 hr by ELISA relative to control
[22] = molecular target: Proto-oncogene tyrosine-protein kinase Src (Homo sapiens) (UniProt P12931); assay: Inhibition of c-Src (unknown origin) using poly (Glu, Tyr) 4:1 as substrate at 100 uM after 1 hr by ELISA relative to control
Sequence of Proto-oncogene tyrosine-protein kinase Src (Homo sapiens) (P12931 2-536 limits assumed): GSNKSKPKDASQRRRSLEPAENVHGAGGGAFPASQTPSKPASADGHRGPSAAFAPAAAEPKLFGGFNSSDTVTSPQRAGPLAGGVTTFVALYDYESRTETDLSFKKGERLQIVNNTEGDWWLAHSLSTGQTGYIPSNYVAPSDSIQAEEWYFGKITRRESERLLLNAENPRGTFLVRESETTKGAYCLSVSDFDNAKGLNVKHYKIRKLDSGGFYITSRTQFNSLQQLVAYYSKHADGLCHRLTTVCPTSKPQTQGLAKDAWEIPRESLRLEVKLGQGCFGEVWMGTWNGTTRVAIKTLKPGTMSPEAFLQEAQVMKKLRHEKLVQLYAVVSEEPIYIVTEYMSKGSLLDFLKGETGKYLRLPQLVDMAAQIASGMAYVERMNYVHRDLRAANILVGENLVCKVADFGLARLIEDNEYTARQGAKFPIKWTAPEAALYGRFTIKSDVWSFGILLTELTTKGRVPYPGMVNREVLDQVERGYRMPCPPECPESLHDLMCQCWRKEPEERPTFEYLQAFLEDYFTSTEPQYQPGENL

[23] = molecular target: Hepatocyte growth factor receptor (Homo sapiens) (UniProt P08581); assay: Inhibition of c-Met (unknown origin) using poly (Glu, Tyr) 4:1 as substrate at 100 uM after 1 hr by ELISA relative to control
[24] = molecular target: ALK tyrosine kinase receptor (Homo sapiens) (UniProt Q9UM73); assay: Inhibition of ALK (unknown origin) using poly (Glu, Tyr) 4:1 as substrate at 100 uM after 1 hr by ELISA relative to control
[25] = molecular target: Fibroblast growth factor receptor 1 (Homo sapiens) (UniProt P11362); assay: Inhibition of FGFR1 (unknown origin) using poly (Glu, Tyr) 4:1 as substrate at 100 uM after 1 hr by ELISA relative to control
Sequence of Fibroblast growth factor receptor 1 (Homo sapiens) (P11362 22-822 limits assumed): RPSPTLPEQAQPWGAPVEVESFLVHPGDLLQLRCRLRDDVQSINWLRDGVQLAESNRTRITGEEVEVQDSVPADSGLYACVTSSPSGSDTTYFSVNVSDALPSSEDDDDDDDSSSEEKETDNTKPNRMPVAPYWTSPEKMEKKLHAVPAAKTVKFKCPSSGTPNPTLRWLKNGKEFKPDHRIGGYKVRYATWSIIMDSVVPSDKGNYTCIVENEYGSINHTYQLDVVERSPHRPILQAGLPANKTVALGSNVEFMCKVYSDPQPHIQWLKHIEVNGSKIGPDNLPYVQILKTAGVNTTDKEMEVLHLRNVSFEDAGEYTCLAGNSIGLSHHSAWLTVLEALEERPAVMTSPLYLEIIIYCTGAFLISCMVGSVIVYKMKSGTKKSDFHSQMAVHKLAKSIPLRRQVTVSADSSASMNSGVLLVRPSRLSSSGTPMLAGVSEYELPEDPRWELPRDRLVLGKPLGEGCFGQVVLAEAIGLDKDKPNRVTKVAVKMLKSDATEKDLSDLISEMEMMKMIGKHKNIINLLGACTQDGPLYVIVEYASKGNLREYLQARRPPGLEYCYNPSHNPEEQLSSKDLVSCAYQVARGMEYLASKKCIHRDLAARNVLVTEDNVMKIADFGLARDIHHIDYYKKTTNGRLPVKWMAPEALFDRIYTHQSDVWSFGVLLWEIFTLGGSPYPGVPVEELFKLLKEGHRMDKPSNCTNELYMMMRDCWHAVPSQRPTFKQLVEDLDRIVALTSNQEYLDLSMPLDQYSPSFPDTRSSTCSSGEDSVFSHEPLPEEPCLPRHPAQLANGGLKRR

A2780 [26] = assay: Cell cycle arrest in human A2780 cells assessed as accumulation at G0/G1 phase at 5 to 15 uM after 48 hrs by propidium iodide staining based flow cytometry ( Rvb = 60%); assay type: functional
A2780 [27] = assay: Cell cycle arrest in human A2780 cells assessed as decrease in S phase after 48 hrs by propidium iodide staining based flow cytometry; assay type: functional
A2780 [28] = assay: Cell cycle arrest in human A2780 cells assessed as decrease in G2/M phase after 48 hrs by propidium iodide staining based flow cytometry; assay type: functional
[29] = Toxicity in nude BALB/c mouse xenografted with human A2780 cells assessed as body weight loss at 50 mg/kg, ip administered once every 2 days for 14 consecutive days relative to control; assay type: organism-based; conditions: in vivo, 48 h
Saccharomyces cerevisiae = assay: Inhibition of yeast CK1 using poly (Glu, Tyr) 4:1 as substrate after 1 hr by ELISA relative to control; conditions: concentration not given here
cells = conditions: Homo sapiens, OVCA433, 48 h
Description: Antiproliferative activity against human OVCA433 cells measured after 48 hrs by MTT assay

## CCCCCCCCCCCCCCC(=O)NC1CCN(C(=O)C2Sc3ccccc3N(CC)C2=O)CC1 (stereo unspecified)
A2780 [1]
  inhibition in vivo at 50 mg/kg: 41.3%
A2780 [2]
  inhibition in vivo at 30 mg/kg: 37.8%
A2780 [3]
  Activity: 83.3%
A2780 [4]
  IC50: 4.6 µM
[5]
  inhibition: 34%
[6]
  inhibition: -8%
Homo sapiens [7]
  inhibition: 0%
[8]
  inhibition: -7%
[9]
  inhibition: 52%
[10]
  inhibition: 12%
Homo sapiens [11]
  inhibition: 36%
[12]
  inhibition: 7%
[13]
  inhibition: 0%
[14]
  inhibition: 19%
[15]
  inhibition: -3%
[16]
  inhibition: 0%
[17]
  inhibition: 19.6%
[18]
  inhibition: 6.8%
[19]
  inhibition: 0%
[20]
  inhibition: 0%
[21]
  inhibition: 13%
[22]
  inhibition: 3.2%
[23]
  inhibition: -4.8%
[24]
  inhibition: -1.7%
[25]
  inhibition: 9.3%
A2780 [26]
  Activity: 77.1%
A2780 [27]
  Activity: Dose-dependent effect
A2780 [28]
  Activity: Dose-dependent effect
[29]
  Activity: Non-Toxic
Saccharomyces cerevisiae
  inhibition: 14%
cells
  IC50: 8.3 µM
